Test results published in paper PMC7382241, “Genomic discovery of an evolutionarily programmed modality for small-molecule targeting of an intractable protein surface” (Proceedings of the National Academy of Sciences of the …, 2020).

Target: T1, FKBP12 (Homo sapiens, UniProt P62942)
T1 construct: gene FKBP1A; AVI-tagged FKBP12, E. coli BL21(DE3)pLysS, immobilized on NTA sensor chip
Type: binding
Details: 25 °C; binary complex

T1 sequence (P62942 2-108): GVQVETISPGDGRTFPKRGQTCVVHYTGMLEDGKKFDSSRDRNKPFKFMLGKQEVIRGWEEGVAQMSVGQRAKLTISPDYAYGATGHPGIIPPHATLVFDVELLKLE

C=CC[C@@H]1/C=C(\C)C[C@H](C)C[C@H](OC)[C@H]2O[C@@](O)(C(=O)C(=O)N3CCCC[C@H]3C(=O)O[C@H](/C(C)=C/[C@@H]3CC[C@@H](O)[C@H](OC)C3)[C@H](C)[C@@H](O)CC1=O)[C@H](C)C[C@@H]2OC [FK506]
KD: KD measurements by SPR for WDB001, WDB002, WDB003, WDB011, rapamycin, and FK506
